Patent US8865891B2, “Optically-detectable enzyme substrates and their method of use” (priority 2004, dated 2014)
Read-outs that look alike come from different tables or passages of the source.

How the values were obtained:
TEM-1 β-lactamase = TEM-1 β-lactamase (Escherichia coli, UniProt P62593); experiment: Fluorescence from precipitating β-lactamase substrate in 96-well microplate; type: biochemical
Method: This was diluted 2-fold in methanol to give a working solution of 1 mM. 20 μL of 250 nM TEM-1 β-lactamase was added to the wells of a 96-well microplate. Appropriate volumes of substrate were added to the wells to give final concentrations of 0, 30, 50, 60, 75, 100, 140, 160 and 200 uM after diluting to 100 μL with 100 mM phosphate, 150 mM NaCl (pH7.1). The final β-lactamase concentration was 50 nM. Samples were excited @ 360 nm and fluorescence was measured @ 450 nm, signal was read @ 5, 13, 19, 26, 35, 45, 51 and 65 minutes. Maximum signal was attained after 5 minutes.

[1] = pH range, hydrolysis rate: background fluorescence of substrate in buffers without enzyme; type: physicochemical; conditions: for increase in fluorescence due to hydrolysis (percentage of maximum fluorescence): 1 μg/mL, over 250 min; for time to complete hydrolysis: assumes a constant rate of hydrolysis
Method: Compound 108 was prepared at a concentration of 1 μg/ml in three different buffers: MES at pH 5.5, PBS at pH 7.2, and Tris at pH 8.0. The substrate solutions were applied to the wells of a microplate, the plate was protected from light, and fluorescence values were gathered at time points from 10-250 minutes. […] Maximum signal was determined by the fluorescence value obtained when 10 μl of a 100 μg/ml solution of β-lactamase was added to control wells. Each point is the mean of 12 replicates. See, Example 32.
Solutions of Compound 108 (1 μg/mL) were prepared in pH 5.5 MES, pH 7.2 PBS, and pH 8.0 Tris-HCl, then added to 16 wells of a 96-well plate. For each pH, high concentrations of TEM-1 were added to 4 wells to obtain a maximum signal (assuming complete cleavage of all substrate). The entire plate was read every 15 min. for 250 min. All fluorescent signals were averaged, then normalized to a percentage of the maximum fluorescence. […] The Tris-HCl samples increased in fluorescence about 7.5% over 250 min., corresponding to complete hydrolysis after about 55 hrs. […] These estimations assume a constant rate of hydrolysis.

[2] = molecular target: β-lactamase-conjugated secondary antibody (Escherichia coli, UniProt P62593); experiment: Fluorogenic sandwich ELISA for prostate specific antigen (PSA); conditions: 1 μg substrate; fluorogenic assay
Method: For the fluorogenic assay, 100 μl/well of a 10 μg/ml solution of anti-prostate specific antigen (PSA) antibody was applied to microplate wells. After incubation and washes, a dilution series of purified PSA was applied, and detection was achieved using 100 μl of a 10 μg/ml of an anti-PSA primary antibody and 100 μl of a 10 μg/ml of a β-lactamase-conjugated secondary antibody in the presence of 1 μg Compound 108 substrate (with appropriate washes between steps). The Z-statistic^1 gives a lower limit of detection of PSA in this assay of 16 pg/ml. For the colorimetric assay, a commercially available kit for the detection of PSA in human serum or plasma was used according to the manufacturers instructions. The assay was performed using the PSA standards provided in the kit. […] The reaction was stopped after 15 minutes using the stop solution provided in the kit and the absorbance was read at 450 nm. […]
Optimal concentrations for use in ELISA-format assays was determined experimentally using a model sandwich ELISA to detect human Prostate Specific Antigen (PSA). […] The PSA standards were detected with a polyclonal rabbit anti-PSA antibody, then a secondary conjugate of goat anti-rabbit TEM-1. Plates were developed by addition of a β-lactamase substrate solution to drained wells, then measurement of fluorescence on the Tecan Safire fluorescence plate reader.

TEM-1 = TEM-1 (Escherichia coli, UniProt P62593); conditions: read-out: Km (μM) difluoro sub., 5 nM TEM-1, PBS, pH 7.2
TEM-1, sequence (P62593 24-286 limits assumed): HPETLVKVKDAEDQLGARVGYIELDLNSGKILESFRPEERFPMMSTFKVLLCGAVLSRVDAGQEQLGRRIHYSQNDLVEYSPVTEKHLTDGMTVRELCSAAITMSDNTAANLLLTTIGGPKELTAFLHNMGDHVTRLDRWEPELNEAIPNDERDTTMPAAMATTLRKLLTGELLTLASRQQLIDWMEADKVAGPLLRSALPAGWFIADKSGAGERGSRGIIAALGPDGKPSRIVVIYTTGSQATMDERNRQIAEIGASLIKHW
Method: For determination of Km of the β-lactamase substrate with TEM-1, substrates ranging from 40 μg/mL to 5 μg/mL were added to microplate wells with a constant concentration of 5 nM TEM-1. The plate was read for the first 5 minutes with a Tecan Safire fluorescence plate reader using a constant gain setting. Relative Fluorescence Units (RFUs) were converted into moles of product produced using a standard curve of the substrate's fluorescent product. This standard curve was produced by adding an excess of TEM-1 (0.5 μM) to an equal volume of substrate, and incubating for more than 1 hour. Substrate standard concentrations ranged from ˜16 nM to 2 μM. It was assumed the reaction went to completion. All enzyme and substrate solutions were prepared in PBS, pH 7.2.

TEM-1 β-lactamase, sequence (P62593 24-286 limits assumed): as above
β-lactamase-conjugated secondary antibody, sequence (P62593 24-286 limits assumed): as above

SMILES: O=C(Cc1cccs1)NC1C(=O)N2C(C(=O)O)=C(COc3ccccc3-c3nc4ccccc4c(=O)[nH]3)C[S+]([O-])C12 (stereo not drawn) [Compound 38]
- fluorescence enhancement upon reaction w/β-lactamase (TEM-1 β-lactamase; 50 nM β-lactamase, excitation 360 nm, emission 450 nm, pH 7.1): ≥ 90 fold
- time at which maximum signal was attained (TEM-1 β-lactamase; 50 nM β-lactamase, pH 7.1): 5 min
- reaction with β-lactamase in the presence of 40% methanol (TEM-1 β-lactamase; 40% methanol): no reaction occurred
- signal at high concentrations of substrate (TEM-1 β-lactamase; substrate up to 200 uM, presumably due to decreased solubility): signal dropped

SMILES: O=C(Cc1cccs1)NC1C(=O)N2C(C(=O)O)=C(/C=C/COc3cc4c(cc3F)C3(OC(=O)c5ccccc53)c3cc(F)c(OC/C=C/C5=C(C(=O)O)N6C(=O)C(NC(=O)Cc7cccs7)C6[S+]([O-])C5)cc3O4)C[S+]([O-])C12 (stereo not drawn) [Compound 108]
- increase in fluorescence due to hydrolysis (percentage of maximum fluorescence) ([1]; pH 5.5 MES and pH 7.2 PBS): about 3.25%
- time to complete hydrolysis ([1]; pH 5.5 MES and pH 7.2 PBS): about 128 hrs
- hydrolysis rate in pH 8.0 Tris-HCl relative to pH 5.5 MES and pH 7.2 PBS ([1]; pH 8.0 Tris-HCl vs MES/PBS): about double
- increase in fluorescence due to hydrolysis (percentage of maximum fluorescence) ([1]; pH 8.0 Tris-HCl): about 7.5%
- time to complete hydrolysis ([1]; pH 8.0 Tris-HCl): about 55 hrs
- lower limit of detection of PSA (Z-statistic) [2]: 16 pg/mL

SMILES: O=C(Cc1cccs1)NC1C(=O)N2C(C(=O)O)=C(C=CCOc3cc4c(cc3F)C3(OC(=O)c5ccccc53)c3cc(F)c(OCC=CC5=C(C(=O)O)N6C(=O)C(NC(=O)Cc7cccs7)C6[S+]([O-])C5)cc3O4)C[S+]([O-])C12 (stereo not drawn) [Compound 108]
- Km (TEM-1; Lineweaver-Burk plot): 40 µM
- Km (TEM-1; Scatchard plot): 36 µM
